In PubChem BioAssay AID651581 (Sanford-Burnham Center for Chemical Genomics, 2012):
Calls of active or inactive are those of the source. How the calls were made is not given here.

How the values were obtained:
[1] = biological target: Endothelial PAS domain-containing protein 1 (Homo sapiens) (UniProt Q99814); assay: potency against HIF reporters across cell lines – luminescence, panel, selectivity assay for HIF-2a inhibitor project, dose response (AID 651581); conditions: human cell HIF reporter
[2] = biological target: Hypoxia-inducible factor 1-alpha (Homo sapiens) (UniProt Q16665); assay: as above; conditions: human cell HIF reporter, HIF-1a
Sequence of Hypoxia-inducible factor 1-alpha (Homo sapiens) (Q16665 whole entry, looked up): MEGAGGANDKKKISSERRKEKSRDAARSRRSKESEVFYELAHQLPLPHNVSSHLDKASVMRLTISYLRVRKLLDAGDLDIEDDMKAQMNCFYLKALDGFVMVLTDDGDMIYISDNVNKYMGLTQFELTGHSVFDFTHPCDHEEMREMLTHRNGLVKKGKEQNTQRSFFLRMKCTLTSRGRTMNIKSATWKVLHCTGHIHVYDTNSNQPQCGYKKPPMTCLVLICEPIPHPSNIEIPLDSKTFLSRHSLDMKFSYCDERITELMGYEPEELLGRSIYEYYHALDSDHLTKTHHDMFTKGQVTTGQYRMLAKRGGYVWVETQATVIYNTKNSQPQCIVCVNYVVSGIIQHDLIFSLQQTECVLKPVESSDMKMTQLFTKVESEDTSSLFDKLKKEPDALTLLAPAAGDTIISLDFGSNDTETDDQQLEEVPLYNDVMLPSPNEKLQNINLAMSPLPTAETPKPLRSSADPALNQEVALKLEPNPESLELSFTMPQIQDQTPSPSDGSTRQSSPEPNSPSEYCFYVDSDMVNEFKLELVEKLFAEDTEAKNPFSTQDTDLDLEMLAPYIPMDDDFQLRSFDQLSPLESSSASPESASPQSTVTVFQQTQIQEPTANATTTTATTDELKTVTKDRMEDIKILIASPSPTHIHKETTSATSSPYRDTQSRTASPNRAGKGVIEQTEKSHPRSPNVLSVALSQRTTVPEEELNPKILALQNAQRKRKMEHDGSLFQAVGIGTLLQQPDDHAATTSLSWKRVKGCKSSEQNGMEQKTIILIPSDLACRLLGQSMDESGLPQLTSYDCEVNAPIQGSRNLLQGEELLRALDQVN

Row | SMILES | IC50 ([1]; HIF-2a PANC, run 1) | IC50 ([1]; HIF-2a PANC, run 2) | IC50 ([1]; HIF-2a, mean of runs) | IC50 ([1]; HIF-2a, run 1) | IC50 ([1]; HIF-2a, run 2) | IC50 ([2]; run 1) | IC50 ([2]; run 2) | IC50 ([1]; HIF-2a PANC, mean of runs) | IC50 ([2]; mean of runs)
1 | O=C(O)c1cccc(N/N=C/c2cccs2)c1 | > 99 µM | 45.8 µM | 5.74 µM | 5.56 µM | 5.91 µM | > 99 µM | > 99 µM | – | –
2 | O=C(Nc1ccccc1)c1nnsc1S(=O)(=O)c1ccc(Cl)cc1 | 44.3 µM | 80.5 µM | 7.71 µM | 7.38 µM | 8.04 µM | 27 µM | 30.2 µM | inactive | 28.6 µM
3 | Cc1ccc(C(C)C)c(OCc2ccc(C(=O)N/N=C/c3ccc(C(=O)O)cc3)cc2)c1 | 0.507 µM | 0.248 µM | 0.45 µM | 0.421 µM | 0.479 µM | > 99 µM | > 99 µM | 0.378 µM | –
4 | COc1cccc(C(=O)C(C#N)=C(SC)SC)c1 | 47.8 µM | 47.4 µM | 5.75 µM | 5.91 µM | 5.59 µM | 23.4 µM | 13.1 µM | inactive | 18.2 µM
5 | CCc1ccc(S(=O)(=O)ON2C(=O)c3ccccc3C2=O)cc1 | 53.4 µM | > 99 µM | inactive | 10.6 µM | 9.59 µM | 25.1 µM | > 99 µM | – | –
6 | Cc1ccc(S(=O)(=O)ON2C(=O)c3ccccc3C2=O)c(C)c1 | > 99 µM | 38.7 µM | 5.62 µM | 5.63 µM | 5.6 µM | > 99 µM | > 99 µM | – | –
7 | CCOC(=O)Cc1csc(NC(=S)NC(=O)c2ccccc2C)n1 | > 99 µM | 49 µM | inactive | 15 µM | 14.5 µM | 22.8 µM | 37.2 µM | – | inactive
8 | Cc1c(CCC(=O)N[C@@H](CC(C)C)C(=O)O)c(=O)oc2cc3oc4c(c3cc12)CCCC4 | 2.58 µM | 2.96 µM | 1.61 µM | 1.61 µM | 1.61 µM | 2.65 µM | 4.05 µM | 2.77 µM | inactive
9 | CCS(=O)(=O)c1ncc(Cl)c(C(=O)Nc2ccc(C)cc2)n1 | 30.4 µM | 30.7 µM | inactive | 10.8 µM | 9.79 µM | 23.9 µM | 20 µM | 30.5 µM | inactive
10 | O=C(O)COc1ccc(-c2nccc(-c3ccccn3)n2)cc1 | 1.36 µM | 0.912 µM | 0.913 µM | 0.806 µM | 1.02 µM | 0.397 µM | 0.777 µM | 1.14 µM | inactive
11 | Cc1nc2cc(-c3ccccc3)nn2c(C)c1CCC(=O)NCc1ccco1 | 6.92 µM | 2.62 µM | 1.81 µM | 1.52 µM | 2.1 µM | > 99 µM | > 99 µM | 4.77 µM | –
12 | CC(=O)Nc1ccc(OCC(=O)c2ccc(C)cc2C)cc1 | 3.04 µM | 5.37 µM | 2.47 µM | 2.75 µM | 2.19 µM | 4.55 µM | 87.9 µM | 4.2 µM | 46.2 µM
13 | Cc1ccc(C(C)C)c(OCc2ccc(-c3nnco3)cc2)c1 | > 99 µM | > 99 µM | 1.7 µM | 1.92 µM | 1.49 µM | > 99 µM | > 99 µM | > 99 µM (inactive) | –
14 | O=[N+]([O-])C1C(c2ccccc2)C12c1ccccc1-c1ccccc12 (configuration not stated) | > 99 µM | < 3 µM | 7.05 µM | 7.84 µM | 6.26 µM | 41.2 µM | 40.3 µM | – | 40.8 µM
15 | O=C(O)c1cc(N/N=C/c2ccc3c(c2)OCCO3)ccc1Cl | > 99 µM | > 99 µM | – | < 30 µM | 5.03 µM | 45.8 µM | > 99 µM | > 99 µM (inactive) | –
16 | CCOc1ccc2nc(SCc3ccc(CC(=O)O)cc3)c(C#N)cc2c1 | 10.9 µM | 3.27 µM | 6.7 µM | 5.75 µM | 7.65 µM | 35.4 µM | 13.8 µM | 7.1 µM | 24.6 µM
17 | CCOC(=O)Cc1csc(N/N=C/c2ccc(C(F)(F)F)cc2)n1 | 0.556 µM | 0.866 µM | – | > 99 µM | 0.221 µM | < 10 µM | > 99 µM | 0.711 µM | –
18 | N#CCC(=O)N/N=C\c1cccc(OC/C=C/c2ccccc2)c1 | > 99 µM | < 30 µM | – | < 30 µM | 8.63 µM | > 99 µM | < 30 µM | – | –
19 | Cc1nc2cc(-c3cccc(F)c3)nn2c(C)c1CCC(=O)N1CCC2(CC1)OCCO2 | 2.17 µM | 1.9 µM | 1.27 µM | 1.27 µM | 1.28 µM | 81.5 µM | 56.2 µM | 2.03 µM | 68.8 µM
20 | O=C(CSc1nnc(-c2ccc(Br)cc2)o1)Nc1cccc(C(=O)O)c1 | > 99 µM | > 99 µM | 9.73 µM | 10.4 µM | 9.1 µM | > 99 µM | > 99 µM | > 99 µM (inactive) | –
21 | COc1ccc2nc(-c3ccc(N)cc3)[nH]c2c1 | 5.51 µM | 1.79 µM | 1.88 µM | 2.55 µM | 1.22 µM | 38.6 µM | 44.2 µM | 3.65 µM | 41.4 µM
22 | COc1ccc(C(=O)/C=C/C(=O)N(CC(=O)NCCC(C)C)Cc2cccs2)c(O)c1 | > 99 µM | 63.8 µM | 3.88 µM | 4.21 µM | 3.55 µM | 9.47 µM | 16 µM | – | 12.8 µM
23 | CCN(CC)S(=O)(=O)c1ccc(NC(=O)c2cccnc2Cl)c(NC(=O)c2cccnc2Cl)c1 | 12.9 µM | 7.07 µM | 10 µM | 9.42 µM | 10.6 µM | 8.13 µM | 16.9 µM | 9.99 µM | inactive
24 | O=C1C=C(c2ccccc2)C(=O)N1Nc1ccccc1 | > 99 µM | > 99 µM | inactive | 11.2 µM | 10.6 µM | 76 µM | 89.5 µM | > 99 µM (inactive) | 82.8 µM
25 | Cc1ccc(Oc2ccc(OCC(=O)Nc3ccncc3)cc2)cc1 | 3.76 µM | 3.42 µM | 5.89 µM | 5.61 µM | 6.17 µM | 14.9 µM | 15.9 µM | 3.59 µM | inactive
26 | CC(=O)Nc1ccc(OS(=O)(=O)c2c(C)cc(C)cc2C)cc1 | > 99 µM | > 99 µM | inactive | 12.5 µM | 10.9 µM | 80 µM | 49.2 µM | > 99 µM (inactive) | 64.6 µM
27 | O=S(=O)(Nc1cccc2cccnc12)c1ccccc1 | > 99 µM | > 99 µM | 3.37 µM | 3.54 µM | 3.2 µM | > 99 µM | > 99 µM | > 99 µM (inactive) | –
